Where two headings read alike, the source gives them in different places.

Holding throughout (type): biochemical
Experiment [1] concerns the target CDK4/CCND3 (Homo sapiens, UniProt P11802). Put plainly: CDK4 homogeneous time-resolved fluorescence (HTRF) kinase assay. As to conditions: CDK4/CCND. The procedure, abridged:
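CDK4/CCND3 at 1.5 nM was preincubated with compound for 20 min at 23 °C, then reacted for 60 min with 1 mM ATP and 50 nM ULight-4E-BP1 (Thr37/46) peptide. The reaction was stopped with EDTA, and phosphorylation was read by HTRF with a Eu-anti-phospho antibody. IC50 values came from 11-point half-log titrations, typically from 10 μM.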

In experiment [2] the target is CDK6/CCND1 (Homo sapiens, UniProt Q00534). Put plainly: CDK6 homogeneous time-resolved fluorescence (HTRF) kinase assay. As to conditions: CDK6/CCND. In a few lines:
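Enzyme pre-incubated 20 min at 23 °C with compound, then reacted 60 min at 23 °C with 1 mM ATP and 50 nM ULight-4E-BP1 (Thr37/46) peptide; 1 nM enzyme, 1% DMSO. EDTA-stopped, Eu-anti-phospho antibody TR-FRET read (665 nm or 665/615 ratio); 11-point half-log titration from 10 μM gave IC50.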
(In general: TR-FRET usually uses a lanthanide donor and a delayed reading to cut background.)

In experiment [3] the target is CDK1/CCNB1 (Homo sapiens, UniProt P06493). Put plainly: CDK1 homogeneous time-resolved fluorescence (HTRF) kinase assay. The note with it: CDK1/CCNB. The procedure, abridged:
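Read-out: TR-FRET (Eu anti-phospho-4E-BP1 Thr37/46 antibody, 2 nM; 665 nm or 665/615 ratio) after 60 min phosphorylation of 50 nM ULight-peptide by 0.5 nM CDK1/CCNB1 at 1 mM ATP, 23 °C. Compound preincubated 20 min with enzyme; 1% DMSO.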

Experiment [4] deals with CDK2/CCNE1 (Homo sapiens, UniProt P24941). Put plainly: CDK2 homogeneous time-resolved fluorescence (HTRF) kinase assay. The note with it: CDK2/CCNE. In a few lines:
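Compounds were titrated 11-point, half-log from typically 10 μM against 3 nM CDK2/cyclin E1 at 1 mM ATP, with a 20 min enzyme preincubation. Phosphorylation of 50 nM ULight-4E-BP1 peptide over 60 min at 23 °C was detected by europium anti-phospho antibody TR-FRET.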

[5] abbreviates: x = IC50 >250 nM, read-out: CDK4/CCND IC50 (>250 nM column).
The mark [6] stands for this setting: x = IC50 >250 nM, read-out: CDK6/CCND IC50 (>250 nM column).
[7] abbreviates: x = IC50 >250 nM, read-out: CDK1/CCNB IC50 (>250 nM column).
The mark [8] stands for this setting: x = IC50 25-250 nM, read-out: CDK2/CCNE IC50 (25-250 nM).
Where [9] appears, read: x = IC50 25-250 nM, read-out: CDK6/CCND IC50 (25-250 nM).
The mark [10] stands for this setting: x = IC50 <25 nM, read-out: CDK2/CCNE IC50 (<25 nM).
Setting [11] is: x = IC50 25-250 nM, read-out: CDK4/CCND IC50 (25-250 nM).
[12] abbreviates: 25-250 nM, read-out: CDK4/CCND IC50, 25-250 nM.
The mark [13] stands for this setting: >250 nM, read-out: CDK1/CCNB IC50 >250 nM.
Setting [14] is: <25 nM, read-out: CDK2/CCNE IC50, <25 nM.

Sequence of CDK6/CCND1 (Q00534 whole entry): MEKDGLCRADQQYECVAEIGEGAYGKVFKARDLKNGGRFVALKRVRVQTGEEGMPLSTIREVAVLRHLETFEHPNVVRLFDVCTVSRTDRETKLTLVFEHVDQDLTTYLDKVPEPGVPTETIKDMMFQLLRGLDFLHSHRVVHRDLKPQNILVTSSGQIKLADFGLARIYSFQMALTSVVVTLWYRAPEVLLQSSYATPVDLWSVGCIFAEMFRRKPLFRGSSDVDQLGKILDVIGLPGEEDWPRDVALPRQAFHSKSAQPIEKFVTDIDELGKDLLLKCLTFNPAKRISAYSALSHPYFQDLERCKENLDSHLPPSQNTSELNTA
Sequence of CDK6/CCND1 (P24385 whole entry partner): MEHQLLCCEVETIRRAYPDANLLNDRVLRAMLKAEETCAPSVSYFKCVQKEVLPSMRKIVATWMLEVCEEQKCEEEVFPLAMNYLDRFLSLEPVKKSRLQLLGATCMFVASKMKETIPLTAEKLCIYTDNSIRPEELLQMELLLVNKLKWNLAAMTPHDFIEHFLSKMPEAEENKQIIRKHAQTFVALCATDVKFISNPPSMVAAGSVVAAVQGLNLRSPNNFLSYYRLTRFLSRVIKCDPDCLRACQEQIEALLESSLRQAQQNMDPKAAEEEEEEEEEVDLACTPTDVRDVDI
Sequence of CDK1/CCNB1 (P06493 whole entry): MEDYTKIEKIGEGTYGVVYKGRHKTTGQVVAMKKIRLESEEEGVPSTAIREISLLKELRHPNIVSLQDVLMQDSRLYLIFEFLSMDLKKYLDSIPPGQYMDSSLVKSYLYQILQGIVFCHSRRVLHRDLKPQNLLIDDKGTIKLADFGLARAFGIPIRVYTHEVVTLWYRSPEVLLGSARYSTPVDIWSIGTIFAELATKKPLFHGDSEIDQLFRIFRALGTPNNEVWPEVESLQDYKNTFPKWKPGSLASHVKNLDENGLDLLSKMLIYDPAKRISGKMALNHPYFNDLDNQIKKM
Sequence of CDK1/CCNB1 (P14635 whole entry partner): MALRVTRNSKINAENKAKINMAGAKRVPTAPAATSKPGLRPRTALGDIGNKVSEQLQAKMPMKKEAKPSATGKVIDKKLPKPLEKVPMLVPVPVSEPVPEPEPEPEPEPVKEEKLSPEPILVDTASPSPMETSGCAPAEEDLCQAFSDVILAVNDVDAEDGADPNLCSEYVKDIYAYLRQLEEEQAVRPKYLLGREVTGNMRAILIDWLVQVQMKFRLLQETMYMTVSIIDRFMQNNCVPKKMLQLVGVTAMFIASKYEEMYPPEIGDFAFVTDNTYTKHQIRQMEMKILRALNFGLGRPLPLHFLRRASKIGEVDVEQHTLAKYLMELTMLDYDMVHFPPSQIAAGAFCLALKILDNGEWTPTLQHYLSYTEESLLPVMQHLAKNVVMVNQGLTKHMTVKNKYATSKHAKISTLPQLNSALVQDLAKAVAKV
Sequence of CDK4/CCND3 (P11802 whole entry): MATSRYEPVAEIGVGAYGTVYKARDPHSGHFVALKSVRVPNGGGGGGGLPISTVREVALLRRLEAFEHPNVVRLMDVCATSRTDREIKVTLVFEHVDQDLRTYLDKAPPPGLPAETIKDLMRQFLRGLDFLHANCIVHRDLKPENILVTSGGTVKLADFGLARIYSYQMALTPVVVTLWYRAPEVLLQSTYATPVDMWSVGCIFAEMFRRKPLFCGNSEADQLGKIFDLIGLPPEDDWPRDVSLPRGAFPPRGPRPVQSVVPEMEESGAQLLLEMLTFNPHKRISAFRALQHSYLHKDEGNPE
Sequence of CDK4/CCND3 (P30281 whole entry partner): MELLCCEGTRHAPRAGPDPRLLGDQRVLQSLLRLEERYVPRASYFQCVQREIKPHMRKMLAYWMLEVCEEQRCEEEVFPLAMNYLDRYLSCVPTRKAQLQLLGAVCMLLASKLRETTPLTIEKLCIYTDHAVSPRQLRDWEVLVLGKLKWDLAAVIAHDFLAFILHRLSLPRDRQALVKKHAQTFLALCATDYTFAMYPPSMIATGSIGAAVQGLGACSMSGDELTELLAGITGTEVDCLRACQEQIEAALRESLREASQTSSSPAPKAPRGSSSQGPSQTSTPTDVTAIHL

Consider `CC(Cn1ncc2c(C)c(-c3nccc4cnc(Nc5ccc(S(C)(=O)=O)cc5)cc34)ccc21)=NO` [Example 592, 1-(4-methyl-5-(7-((4-(methylsulfonyl)phenyl)amino)-2,6-naphthyridin-1-yl)-1H-indazol-1-yl)propan-2-one oxime], for which the IC50 in experiment [1] (setting [5]) is more than 250 nM; in experiment [2] (setting [6]), more than 250 nM; in experiment [3] (setting [7]), more than 250 nM; in experiment [4] (setting [8]), 25 to 250 nM.
For `CC(=O)Nc1cc(Nc2cc3c(-c4ccc5c(cnn5CCO)c4C)nccc3cn2)ccc1S(C)(=O)=O` [Example 593, N-(5-((5-(1-(2-hydroxyethyl)-4-methyl-1H-indazol-5-yl)-2,6-naphthyridin-3-yl)amino)-2-(methylsulfonyl)phenyl)acetamide], the IC50 was more than 250 nM in experiment [1] (setting [5]), more than 250 nM in experiment [2] (setting [6]), more than 250 nM in experiment [3] (setting [7]) and 25 to 250 nM in experiment [4] (setting [8]).
Regarding `COC(=O)c1cc2ccc(C#Cc3nccc4cnc(Nc5ccc(S(C)(=O)=O)cc5)cc34)cc2[nH]1` [Example 594, methyl 6-((7-((4-(methylsulfonyl)phenyl)amino)-2,6-naphthyridin-1-yl)ethynyl)-1H-indole-2-carboxylate], the IC50 in experiment [1] (setting [5]) is more than 250 nM; in experiment [2] (setting [6]), more than 250 nM; in experiment [3] (setting [7]) it was more than 250 nM; in experiment [4] (setting [8]), 25 to 250 nM.
For the compound `Cc1c(-c2nccc3cnc(Nc4ccc(S(C)(=O)=O)cc4)cc23)ccc2c1cnn2CC(O)(C(F)(F)F)C(F)(F)F` [Example 595, 1,1,1,3,3,3-hexafluoro-2-((4-methyl-5-(7-((4-(methylsulfonyl)phenyl)amino)-2,6-naphthyridin-1-yl)-1H-indazol-1-yl)methyl)propan-2-ol], the IC50 in experiment [1] (setting [5]) was more than 250 nM; in experiment [2] (setting [9]) it was 25 to 250 nM; in experiment [3] (setting [7]), more than 250 nM; in experiment [4] (setting [10]), less than 25 nM.
For `CS(=O)(=O)c1ccc(Nc2cc3c(C#CC4CCN(Cc5cn[nH]c5)CC4)nccc3cn2)cc1` [Example 603, 5-((1-((1H-pyrazol-4-yl)methyl)piperidin-4-yl)ethynyl)-N-(4-(methylsulfonyl)phenyl)-2,6-naphthyridin-3-amine], the IC50 in experiment [1] (setting [5]) was more than 250 nM; in experiment [2] (setting [9]) it was 25 to 250 nM; in experiment [3] (setting [7]), more than 250 nM; in experiment [4] (setting [10]), less than 25 nM.
With `CC(C)(O)CN1CCc2cc(-c3nccc4cnc(Nc5ccc(S(C)(=O)=O)cc5)cc34)ccc2C1` [Example 629, 2-Methyl-1-(6-(7-((4-(methylsulfonyl)phenyl)amino)-2,6-naphthyridin-1-yl)-3,4-dihydroisoquinolin-2(1H)-yl)propan-2-ol], the IC50 in experiment [1] (setting [5]) was more than 250 nM; in experiment [2] (setting [9]), 25 to 250 nM; in experiment [3] (setting [7]) it was more than 250 nM; in experiment [4] (setting [10]) it was less than 25 nM.
On to `CC(=O)NCCn1cc2c(C)c(-c3nccc4cnc(Nc5ccc(S(C)(=O)=O)cc5)cc34)ccc2n1` [Example 630, N-(2-(4-methyl-5-(7-((4-(methylsulfonyl)phenyl)amino)-2,6-naphthyridin-1-yl)-2H-indazol-2-yl)ethyl)acetamide], for which the IC50 was 25 to 250 nM in experiment [1] (setting [11]), 25 to 250 nM in experiment [2] (setting [9]), more than 250 nM in experiment [3] (setting [7]) and less than 25 nM in experiment [4] (setting [10]).
Turning to `C=Cc1c(-c2nccc3cnc(Nc4ccc(S(C)(=O)=O)cc4)cc23)ccc2[nH]ncc12` [Example 641, N-(4-(methylsulfonyl)phenyl)-5-(4-vinyl-1H-indazol-5-yl)-2,6-naphthyridin-3-amine], the IC50 in experiment [1] (setting [5]) is more than 250 nM; in experiment [2] (setting [6]), more than 250 nM; in experiment [3] (setting [7]), more than 250 nM; in experiment [4] (setting [8]), 25 to 250 nM.
In the case of `Cc1c(-c2nccc3cnc(Nc4ccc(S(C)(=O)=O)cc4)cc23)ccc2c1cnn2CC(=O)NC1CCCCC1` [Example 642, N-cyclohexyl-2-(4-methyl-5-(7-((4-(methylsulfonyl)phenyl)amino)-2,6-naphthyridin-1-yl)-1H-indazol-1-yl)acetamide], the IC50 in experiment [1] (setting [5]) is more than 250 nM; in experiment [2] (setting [6]), more than 250 nM; in experiment [3] (setting [7]), more than 250 nM; in experiment [4] (setting [8]) it was 25 to 250 nM.
On to `Cc1c(-c2nccc3cnc(Nc4ccc(S(C)(=O)=O)cc4)cc23)ccc2c1cnn2C(N)=O` [Example 659, 4-methyl-5-(7-((4-(methylsulfonyl)phenyl)amino)-2,6-naphthyridin-1-yl)-1H-indazole-1-carboxamide], for which the IC50 in experiment [1] (setting [11]) was 25 to 250 nM; in experiment [2] (setting [9]), 25 to 250 nM; in experiment [3] (setting [7]) it was more than 250 nM; in experiment [4] (setting [10]) it was less than 25 nM.
Consider `N#Cc1ccc(C#Cc2nccc3cnc(Nc4ccc(S(=O)(=O)CCN5CCOCC5)cc4)cc23)cc1` [Example 661, 4-((7-((4-((2-morpholinoethyl)sulfonyl)phenyl)amino)-2,6-naphthyridin-1-yl)ethynyl)benzonitrile], for which the IC50 in experiment [1] (setting [5]) is more than 250 nM; in experiment [2] (setting [6]) it was more than 250 nM; in experiment [3] (setting [7]), more than 250 nM; in experiment [4] (setting [8]) it was 25 to 250 nM.
As for `Cn1cc(C#Cc2nccc3cnc(Nc4ccc(S(C)(=O)=O)cc4)cc23)ccc1=O` [Example 663, 1-Methyl-5-((7-((4-(methylsulfonyl)phenyl)amino)-2,6-naphthyridin-1-yl)ethynyl)pyridin-2(1H)-one], the IC50 in experiment [1] (setting [5]) was more than 250 nM; in experiment [2] (setting [6]), more than 250 nM; in experiment [3] (setting [7]), more than 250 nM; in experiment [4] (setting [8]) it was 25 to 250 nM.
With `CS(=O)(=O)c1ccc(Nc2cc3c(C#Cc4ccc(CN5CCOCC5)cc4)nccc3cn2)cc1` [Example 666, N-(4-(methylsulfonyl)phenyl)-5-((4-(morpholinomethyl)phenyl)ethynyl)-2,6-naphthyridin-3-amine], the IC50 in experiment [1] (setting [5]) is more than 250 nM; in experiment [2] (setting [6]), more than 250 nM; in experiment [3] (setting [7]), more than 250 nM; in experiment [4] (setting [10]), less than 25 nM.
Take `Cc1c(-c2nccc3cnc(Nc4ccc(S(C)(=O)=O)cc4)cc23)ccc2c1cnn2C(=O)NC(C)(C)C` [Example 668, N-(tert-butyl)-4-methyl-5-(7-((4-(methylsulfonyl)phenyl)amino)-2,6-naphthyridin-1-yl)-1H-indazole-1-carboxamide]: the IC50 is more than 250 nM in experiment [1] (setting [5]), more than 250 nM in experiment [2] (setting [6]), more than 250 nM in experiment [3] (setting [7]) and 25 to 250 nM in experiment [4] (setting [8]).
Take `C/C=C/S(=O)(=O)c1ccc(Nc2cc3c(N4CCC(C#N)CC4)nccc3cn2)cc1` [Example 670, (E)-1-(7-((4-(prop-1-en-1-ylsulfonyl)phenyl)amino)-2,6-naphthyridin-1-yl)piperidine-4-carbonitrile]: the IC50 in experiment [1] (setting [5]) is more than 250 nM; in experiment [2] (setting [6]), more than 250 nM; in experiment [3] (setting [7]), more than 250 nM; in experiment [4] (setting [8]) it was 25 to 250 nM.
Turning to `CC(=O)NS(=O)(=O)c1ccc(Nc2cc3c(-c4ccc5c(cnn5CC(O)(C(F)(F)F)C(F)(F)F)c4C)nccc3cn2)cc1` [Example 678, N-((4-((5-(4-methyl-1-(3,3,3-trifluoro-2-hydroxy-2-(trifluoromethyl)propyl)-1H-indazol-5-yl)-2,6-naphthyridin-3-yl)amino)phenyl)sulfonyl)acetamide], the IC50 is more than 250 nM in experiment [1] (setting [5]), more than 250 nM in experiment [2] (setting [6]), more than 250 nM in experiment [3] (setting [7]) and 25 to 250 nM in experiment [4] (setting [8]).
As to `CCN[S@](=N)(=O)c1ccc(Nc2cc3c(-c4ccc5c(cnn5CC(O)(C(F)(F)F)C(F)(F)F)c4C)nccc3cn2)cc1` [Example 682, (S)-N-ethyl-4-((5-(4-methyl-1-(3,3,3-trifluoro-2-hydroxy-2-(trifluoromethyl)propyl)-1H-indazol-5-yl)-2,6-naphthyridin-3-yl)amino)benzenesulfonimidamide], the IC50 in experiment [1] (setting [12]) is 25 to 250 nM; in experiment [2] (>250 nM, 1 mM ATP, read-out: CDK6/CCND IC50, >250 nM) it was more than 250 nM; in experiment [3] (setting [13]), more than 250 nM; in experiment [4] (setting [14]) it was less than 25 nM.
Consider `N=S(=O)(c1ccc(Nc2cc3c(C#Cc4cnc5c(c4)NC(=O)CO5)nccc3cn2)cc1)C1CCC1` (stereo not drawn) [Example 686, 7-((7-((4-(cyclobutanesulfonimidoyl)phenyl)amino)-2,6-naphthyridin-1-yl)ethynyl)-1H-pyrido[2,3-b][1,4]oxazin-2(3H)-one], for which the IC50 in experiment [1] (setting [12]) is 25 to 250 nM; in experiment [2] (25-250 nM, 1 mM ATP, read-out: CDK6/CCND IC50, 25-250 nM), 25 to 250 nM; in experiment [3] (setting [13]), more than 250 nM; in experiment [4] (setting [14]), less than 25 nM.
